Experimental data reported in PubChem BioAssay AID248 (DTP/NCI, 2004).
Values joined by “and” are separate entries in the source; they are usually repeats but may differ in a detail not shown here. Equal values may be shown once. Inconclusive results and toxic doses are left out. Rule as the data show it: active = T/C of 150% or more; inactive = T/C below 125%.

System: L1210 leukemia ip in BDF1 mice, survival T/C
Test: NCI In Vivo Anticancer Drug Screen. Data for tumor model L1210 Leukemia (intraperitoneal) in B6D2F1 (BDF1) mice
Conditions: endpoint: mean survival time, higher = longer survival
Outline: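 Tumor was transplanted into mice, which were then dosed with test compound or vehicle alone. Survival was recorded for each group, and the treated figure was expressed relative to the control figure.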

[1] = dose: 100.0 mg/kg/injection, schedule: Q01DX009 (ip), vehicle: Klucel (hydroxypropylcellulose) (HPC)
[2] = dose: 100.0 mg/kg/injection, schedule: Q04DX003 (ip), vehicle: saline with Tween-80
[3] = dose: 200.0 mg/kg/injection, schedule: Q04DX003 (ip), vehicle: saline with Tween-80
[4] = dose: 200.0 mg/kg/injection, schedule: Q01DX009 (ip), vehicle: Klucel (hydroxypropylcellulose) (HPC)
[5] = dose: 400.0 mg/kg/injection, schedule: Q01DX009 (ip), vehicle: Klucel (hydroxypropylcellulose) (HPC)
[6] = dose: 100.0 mg/kg/injection, schedule: Q04DX003 (ip), vehicle: Klucel (hydroxypropylcellulose) (HPC)
[7] = dose: 200.0 mg/kg/injection, schedule: Q04DX003 (ip), vehicle: Klucel (hydroxypropylcellulose) (HPC)
[8] = dose: 400.0 mg/kg/injection, schedule: Q04DX003 (ip), vehicle: Klucel (hydroxypropylcellulose) (HPC)
[9] = dose: 100.0 mg/kg/injection, schedule: Q01DX001 (ip), vehicle: saline
[10] = dose: 200.0 mg/kg/injection, schedule: Q01DX001 (ip), vehicle: saline
[11] = dose: 400.0 mg/kg/injection, schedule: Q01DX001 (ip), vehicle: saline
[12] = dose: 100.0 mg/kg/injection, schedule: Q01DX009 (ip), vehicle: saline
[13] = dose: 100.0 mg/kg/injection, schedule: Q04DX003 (ip), vehicle: saline
[14] = dose: 200.0 mg/kg/injection, schedule: Q04DX003 (ip), vehicle: saline
[15] = dose: 400.0 mg/kg/injection, schedule: Q04DX003 (ip), vehicle: saline

Measured: T/C

O=C(N/N=C(\C=N\NC(=O)c1ccccc1)CC(O)CO)c1ccccc1 (centres undefined)
inactive: dose: 25.0 mg/kg/injection, schedule: Q01DX009 (ip), vehicle: Klucel (hydroxypropylcellulose) (HPC) 93 % of control | dose: 50.0 mg/kg/injection, schedule: Q01DX009 (ip), vehicle: Klucel (hydroxypropylcellulose) (HPC) 91 % of control | [1] 91 % of control | [2] 94 % of control | [3] 93 % of control

CCOC(=O)c1cnc(SCc2ccccc2)[nH]c1=O
inactive: dose: 100.0 mg/kg/injection, schedule: Q01DX009 (ip), vehicle: saline with Tween-80 101 % of control | dose: 200.0 mg/kg/injection, schedule: Q01DX009 (ip), vehicle: saline with Tween-80 91 % of control | dose: 400.0 mg/kg/injection, schedule: Q01DX009 (ip), vehicle: saline with Tween-80 92 % of control

c1ccc(N=NC2(c3ccccc3)CCC(c3ccccc3)=NN2c2ccccc2)cc1 (centres undefined)
inactive: [2] 100 % of control | [3] 89 % of control | dose: 400.0 mg/kg/injection, schedule: Q04DX003 (ip), vehicle: saline with Tween-80 93 % of control

CC(=O)Nc1cccc(OC(=O)Nc2cccc(Cl)c2Cl)c1
inactive: [1] 97 % of control | [4] 102 % of control | [5] 103 % of control

NC(=S)NNC=O
inactive: [6] 95 % of control | [7] 92 % of control | [8] 100 % of control

CN(C)P(=O)(N(C)C)N(C)C
inactive: [9] 101 % of control | [10] 98 % of control | [11] 102 % of control | dose: 1:6400.0 dilution, schedule: Q01DX009 (ip), vehicle: saline 107 % of control

O=C(OCc1ccccc1CN1CCCC1)c1cccc(Cl)c1
inactive: dose: 100.0 mg/kg/injection, schedule: Q01DX001 (ip), vehicle: Klucel (hydroxypropylcellulose) (HPC) 102 % of control | dose: 200.0 mg/kg/injection, schedule: Q01DX001 (ip), vehicle: Klucel (hydroxypropylcellulose) (HPC) 117 % of control

COc1ccc(Cl)cc1NC(=O)Nc1cccc2c(O)cccc12
inactive: [12] 96 % of control | [13] 107 % of control | dose: 200.0 mg/kg/injection, schedule: Q01DX009 (ip), vehicle: saline 100 % of control | [14] 107 % of control | dose: 400.0 mg/kg/injection, schedule: Q01DX009 (ip), vehicle: saline 96 % of control | [15] 103 % of control

O=S(=O)(O)SCCN1CCCCCCC1
inactive: [12] 95 % of control

CC(=C/C(C)(C)C)/C(C)=C/C(C)(C)C
inactive: [12] 88 % of control

Cc1c(Cl)cccc1NC(=O)Sc1ccc(C(C)(C)C)cc1
inactive: [1] 100 % of control | [4] 90 % of control | [5] 98 % of control

Cc1cc(N=Nc2ccccc2C)ccc1N
inactive: dose: 3.0 mg/kg/injection, schedule: Q01DX009 (ip), vehicle: DMSO 97 % of control | dose: 6.0 mg/kg/injection, schedule: Q01DX009 (ip), vehicle: DMSO 90 % of control | dose: 12.0 mg/kg/injection, schedule: Q01DX009 (ip), vehicle: DMSO 98 % of control | dose: 12.5 mg/kg/injection, schedule: Q01DX009 (ip), vehicle: DMSO 95 % of control | dose: 12.5 mg/kg/injection, schedule: Q04DX003 (ip), vehicle: DMSO 100 % of control | dose: 25.0 mg/kg/injection, schedule: Q04DX003 (ip), vehicle: DMSO 98 % of control | dose: 50.0 mg/kg/injection, schedule: Q04DX003 (ip), vehicle: DMSO 96 % of control

COC1OC(CO)C2OC12 (centres undefined)
inactive: dose: 75.0 mg/kg/injection, schedule: Q01DX009 (ip), vehicle: saline 98 % of control and 107 % of control | [9] 104 % of control | [13] 107 % of control and 100 % of control | dose: 150.0 mg/kg/injection, schedule: Q01DX009 (ip), vehicle: saline 110 % of control and 93 % of control | [10] 102 % of control and 96 % of control | [14] 98 % of control and 89 % of control | dose: 300.0 mg/kg/injection, schedule: Q01DX009 (ip), vehicle: saline 102 % of control and 100 % of control | [11] 104 % of control | [15] 100 % of control and 104 % of control

CCCCO[Si](C)(C)CCl
inactive: dose: 50.0 mg/kg/injection, schedule: Q01DX001 (ip), vehicle: carboxymethylcellulose (CMC) 101 % of control | dose: 100.0 mg/kg/injection, schedule: Q01DX001 (ip), vehicle: carboxymethylcellulose (CMC) 101 % of control | dose: 200.0 mg/kg/injection, schedule: Q01DX001 (ip), vehicle: carboxymethylcellulose (CMC) 106 % of control | dose: 400.0 mg/kg/injection, schedule: Q01DX001 (ip), vehicle: carboxymethylcellulose (CMC) 97 % of control

CC(CCNc1ccc(NCCC(C)CC(C)(C)C)cc1)CC(C)(C)C (centres undefined)
inactive: [1] 98 % of control | [6] 110 % of control | [4] 101 % of control | [7] 102 % of control | [8] 96 % of control

COc1ccccc1/C=C/[N+](=O)[O-]
inactive: dose: 50.0 mg/kg/injection, schedule: Q04DX003 (ip), vehicle: Klucel (hydroxypropylcellulose) (HPC) 95 % of control | [6] 101 % of control

CC(=O)N(CCCc1ccccc1)C(C)(C)C
inactive: dose: 50.0 mg/kg/injection, schedule: Q01DX009 (ip), vehicle: saline 104 % of control | [9] 110 % of control | [12] 110 % of control | [10] 114 % of control

CC(=O)Cc1cc(C)nc(NC#N)n1
inactive: dose: 100.0 mg/kg/injection, schedule: Q04DX002 (ip), vehicle: Klucel (hydroxypropylcellulose) (HPC) 102 % of control | dose: 200.0 mg/kg/injection, schedule: Q04DX002 (ip), vehicle: Klucel (hydroxypropylcellulose) (HPC) 98 % of control

Oc1c(Cl)cc(Cl)cc1/C=N/N1CCN(/N=C/c2cc(Cl)cc(Cl)c2O)CC1
inactive: [9] 87 % of control | [10] 87 % of control

C[PH+](c1ccccc1)c1ccccc1.C[PH+](c1ccccc1)c1ccccc1.[Br][Pd][Br]
inactive: dose: 50.0 mg/kg/injection, schedule: Q04DX003 (ip), vehicle: saline 98 % of control | [13] 105 % of control | [14] 100 % of control

CSC1SCC2C(=O)N(C)C(C(C)C)C(=O)OCC(NC(=O)c3cnc4ccccc4n3)C(=O)NC(C)C(=O)N(C)C1C(=O)N(C)C(C(C)C)C(=O)OCC(NC(=O)c1cnc3ccccc3n1)C(=O)NC(C)C(=O)N2C (centres undefined)
inactive: dose: 0.4 micrograms/kg/injection, schedule: Q01DX009 (ip), vehicle: saline with Tween-80 97 % of control | dose: 0.9 micrograms/kg/injection, schedule: Q01DX009 (ip), vehicle: saline with Tween-80 102 % of control | dose: 1.9 micrograms/kg/injection, schedule: Q01DX009 (ip), vehicle: saline with Tween-80 97 % of control | dose: 3.8 micrograms/kg/injection, schedule: Q01DX009 (ip), vehicle: saline with Tween-80 102 % of control | dose: 7.5 micrograms/kg/injection, schedule: Q01DX009 (ip), vehicle: saline with Tween-80 115 % of control | dose: 15.0 micrograms/kg/injection, schedule: Q01DX009 (ip), vehicle: saline with Tween-80 117 % of control

O=C1NC(=S)N/C1=C\c1ccco1
inactive: dose: 25.0 mg/kg/injection, schedule: Q01DX001 (ip), vehicle: saline 100 % of control | dose: 50.0 mg/kg/injection, schedule: Q01DX001 (ip), vehicle: saline 100 % of control | [9] 98 % of control and 100 % of control

COc1ccccc1C(CC(=O)c1ccccc1)Sc1ccccc1N (centres undefined)
inactive: dose: 100.0 mg/kg/injection, schedule: Q01DX005 (ip), vehicle: Klucel (hydroxypropylcellulose) (HPC) 118 % of control and 89 % of control | [1] 93 % of control | dose: 130.0 mg/kg/injection, schedule: Q01DX005 (ip), vehicle: Klucel (hydroxypropylcellulose) (HPC) 97 % of control | dose: 200.0 mg/kg/injection, schedule: Q01DX005 (ip), vehicle: Klucel (hydroxypropylcellulose) (HPC) 115 % of control and 90 % of control | [4] 93 % of control | dose: 300.0 mg/kg/injection, schedule: Q01DX005 (ip), vehicle: Klucel (hydroxypropylcellulose) (HPC) 103 % of control | dose: 400.0 mg/kg/injection, schedule: Q01DX005 (ip), vehicle: Klucel (hydroxypropylcellulose) (HPC) 96 % of control and 87 % of control | [5] 86 % of control

CC1=NC(C#N)=C(C#N)N=C(c2ccccc2)C1
inactive: dose: 100.0 mg/kg/injection, schedule: Q01DX009 (ip), vehicle: gum acacia 99 % of control | dose: 200.0 mg/kg/injection, schedule: Q01DX009 (ip), vehicle: gum acacia 91 % of control

CCCN1CCc2cc(OC)c(OC)cc2C1Cc1ccc(OC)c(OC)c1 (centres undefined)
inactive: dose: 75.0 mg/kg/injection, schedule: Q01DX001 (ip), vehicle: other 109 % of control | dose: 150.0 mg/kg/injection, schedule: Q01DX001 (ip), vehicle: other 102 % of control

Cc1cc(CCN)c(C)c2c1sc1ccccc12
inactive: dose: 75.0 mg/kg/injection, schedule: Q01DX001 (ip), vehicle: saline 89 % of control
